Assay results from the supplement of paper PMC11451515.

Test system: NOMO1
Assay: cell viability relative to DMSO control; higher = less cytotoxic
Details: 48 h
Procedure, shortened: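 NOMO1 or SEM (500 cells/well) or P12-Ichikawa (1000 cells/well) leukemia cells were adapted for at least four passages in each medium. They were seeded in 1536-well plates (5 μl) and pin-dosed with library compounds in DMSO over an 11-point threefold series, 47 μM to 0.79 nM. CellTiter-Glo One luminescence was read after 48 h at 37°C. Viability is the per-plate percentage relative to DMSO wells, with cell-free wells as background.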

[1] = HPLM + 10% dialyzed FBS, 0.000781 µM
[2] = HPLM + 10% dialyzed FBS, 0.00234 µM
[3] = HPLM + 10% dialyzed FBS, 0.00702 µM
[4] = HPLM + 10% dialyzed FBS, 0.0211 µM
[5] = HPLM + 10% dialyzed FBS, 0.0632 µM
[6] = HPLM + 10% dialyzed FBS, 0.19 µM
[7] = HPLM + 10% dialyzed FBS, 0.569 µM
[8] = HPLM + 10% dialyzed FBS, 1.71 µM
[9] = HPLM + 10% dialyzed FBS, 5.12 µM
[10] = HPLM + 10% dialyzed FBS, 15.4 µM
[11] = HPLM + 10% dialyzed FBS, 46.1 µM
[12] = RPMI 5 mM glucose + 10% FBS, 0.000781 µM
[13] = RPMI 5 mM glucose + 10% FBS, 0.00234 µM
[14] = RPMI 5 mM glucose + 10% FBS, 0.00702 µM
[15] = RPMI 5 mM glucose + 10% FBS, 0.0211 µM
[16] = RPMI 5 mM glucose + 10% FBS, 0.0632 µM
[17] = RPMI 5 mM glucose + 10% FBS, 0.19 µM
[18] = RPMI 5 mM glucose + 10% FBS, 0.569 µM
[19] = RPMI 5 mM glucose + 10% FBS, 1.71 µM
[20] = RPMI 5 mM glucose + 10% FBS, 5.12 µM
[21] = RPMI 5 mM glucose + 10% FBS, 15.4 µM
[22] = RPMI 5 mM glucose + 10% FBS, 46.1 µM
[23] = RPMI 5 mM glucose + 10% dialyzed FBS, 0.000781 µM
[24] = RPMI 5 mM glucose + 10% dialyzed FBS, 0.00234 µM
[25] = RPMI 5 mM glucose + 10% dialyzed FBS, 0.00702 µM
[26] = RPMI 5 mM glucose + 10% dialyzed FBS, 0.0211 µM
[27] = RPMI 5 mM glucose + 10% dialyzed FBS, 0.0632 µM
[28] = RPMI 5 mM glucose + 10% dialyzed FBS, 0.19 µM
[29] = RPMI 5 mM glucose + 10% dialyzed FBS, 0.569 µM
[30] = RPMI 5 mM glucose + 10% dialyzed FBS, 1.71 µM
[31] = RPMI 5 mM glucose + 10% dialyzed FBS, 5.12 µM
[32] = RPMI 5 mM glucose + 10% dialyzed FBS, 15.4 µM
[33] = RPMI 5 mM glucose + 10% dialyzed FBS, 46.1 µM

Structure (SMILES)	cell viability [1] [%]	cell viability [2] [%]	cell viability [3] [%]	cell viability [4] [%]	cell viability [5] [%]	cell viability [6] [%]	cell viability [7] [%]	cell viability [8] [%]	cell viability [9] [%]	cell viability [10] [%]	cell viability [11] [%]	cell viability [12] [%]	cell viability [13] [%]	cell viability [14] [%]	cell viability [15] [%]	cell viability [16] [%]	cell viability [17] [%]	cell viability [18] [%]	cell viability [19] [%]	cell viability [20] [%]	cell viability [21] [%]	cell viability [22] [%]	cell viability [23] [%]	cell viability [24] [%]	cell viability [25] [%]	cell viability [26] [%]	cell viability [27] [%]	cell viability [28] [%]	cell viability [29] [%]	cell viability [30] [%]	cell viability [31] [%]	cell viability [32] [%]	cell viability [33] [%]
CN(C)C/C=C/C(=O)Nc1ccc(C(=O)Nc2cccc(Nc3ncc(Cl)c(-c4c[nH]c5ccccc45)n3)c2)cc1	78.8	99.4	101	94.6	88.4	85.2	5.25	4.49	4.42	3.89	3.78	81.9	91.4	84.4	93.8	93.5	98.7	5.96	4.95	4.62	3.68	3.47	80	87.7	91.2	94.7	95	73.9	3.8	3.8	3.2	2.9	3.15
N[S+](=O)([O-])c1ccc(Nc2nc(OCC3CCCCC3)c3[nH]cnc3n2)cc1	111	131	117	116	119	73.7	38.2	41.3	58.2	56.1	42.9	97.1	106	109	107	103	103	66.9	28.4	24.3	31.4	47.1	119	115	118	117	104	116	78.2	35.9	35	32	67.1
CC(C(C)N1CC(=O)NC(=O)C1)N1CC(=O)NC(=O)C1 (configuration not stated)																							110	121	139	133	127	123	139	135	130	124	106
Cc1ccc(Nc2cc(-c3cccc(N4C(=O)c5ccccc5C4=O)c3)ncn2)cc1N[S+](C)(=O)[O-]	107	113	156	123	127	149	128	140	153	132	107																						
C[C@H](CCC(=O)O)[C@H]1CC[C@H]2[C@@H]3[C@H](O)C[C@@H]4C[C@H](O)CC[C@]4(C)[C@H]3CC[C@]12C	93.9	93.7	108	99.5	106	98.4	102	99	101	120	114	85	88.1	92.9	88.6	101	87.1	102	91.2	93.5	90.3	83	73	80.4	82.5	84.9	88.9	88.8	83	79.8	89.2	99.2	92.4
C[C@]1(O)CC(C1)C2=NC(=C3[N]2C=CN=C3N)C4=CC5=C(C=C4)C=CC(=N5)C6=CC=CC=C6 (configuration not stated)	95.7	83.7	104	89.9	107	72.2	75.1	53.8	31.8	3.24	4.22	86	88	92.8	85.6	87.4	85.3	83.5	64.3	33.7	3.26	2.26	86.2	73.9	83.8	91.6	90.5	65.8	82.5	53.3	37.7	4.27	1.68
C=CC(=O)Nc1cc2c(Nc3ccc(F)c(Cl)c3)ncnc2cc1C#CC(C)(C)N1CCN(C)CC1	112	109	112	89.9	92	108	117	89.2	55.3	6.12	6.26	95.3	93	91.7	95.4	101	93.5	101	95	94.6	7.56	12.7	99.2	101	107	95.3	86.6	103	101	106	52.7	8.43	5.07
CN(C)CCCC1(c2ccc(F)cc2)OCc2cc(C#N)ccc21 (configuration not stated)	107	103	111	90.7	100	94	91.8	106	68.4	88.8	74	88.5	101	102	88.9	98.5	89.5	91.4	106	57.9	79.9	84.4	87.5	90	96.4	85	90.4	84.5	77.4	82.2	55.3	81	72.6
CCCOc1ccc(C(=O)OCCN(CC)CC)cc1N	109	124	124	121	140	130	132	139	121	112	106	107	115	122	123	107	120	113	111	123	118	118	111	127	115	118	120	128	121	119	117	131	121
Cc1ccc2nc(NCCN)c3ncc(C)n3c2c1	116	99.9	121	104	108	107	105	101	113	88.7	8.31	88.1	92.2	91.9	94.1	98.1	98.4	100	87.8	90.2	84.9	11.3	87.9	95.8	104	104	99	96	95.6	96.7	100	81.6	7.57
Nc1nc(F)nc2c1ncn2[C@@H]1O[C@H](COP(=O)(O)O)[C@@H](O)[C@@H]1O	121	123	135	134	123	125	129	126	109	47.3	21	112	112	130	123	125	115	133	118	117	109	38											
C/C1=C2/[N]3[Co+]456([OH])<-[N]7=C1[C@@H](CCC(N)=O)C(C)(C)/C7=C/C1=[N]->4C(=C(/C)C4=[N]->5[C@@](C)([C@H]3[C@H](CC(N)=O)[C@@]2(C)CCC(=O)NC[C@@H](C)OP(=O)([O-])O[C@H]2[C@@H](O)[C@@H](n3c[n]->6c5cc(C)c(C)cc53)O[C@@H]2CO)[C@@](C)(CC(N)=O)[C@@H]4CCC(N)=O)/[C@@](C)(CC(N)=O)[C@@H]1CCC(N)=O	94.9	110	102	103	113	105	100	77.2	87.9	80.4	70.6	95.1	95	87.9	95.4	90.5	90.3	97.3	82.2	81.4	89	75.5	95.6	95.8	101	94.6	90.7	97.7	97.5	91.8	86.1	89.9	72.7
CNc1nc(-c2ccc3c(N)n[nH]c3c2)cc(N2C[C@@H](C(=O)NC3CCCCC3)CC[C@H]2C)n1	76.9	82.3	79.8	95	94.8	89.2	68.2	64.5	55.9	64.2	17.7	73.9	78	76.2	80.4	89.3	80.3	77.1	84.2	69.9	73.8	19	75.9	91.8	79.2	92.5	90.2	85.5	70.3	70.8	68.2	68.2	29.7
Oc1cc(-c2nc(-c3ccccc3)[nH]c2-c2ccncc2)ccc1Cl	111	119	119	112	123	120	108	84.2	78.8	49.2	21.4	106	104	107	107	121	103	109	102	107	87.1	32.2	101	107	121	107	123	109	104	92.1	81.3	74.8	32
